Peptide text beside a SMILES is read from it. * marks the point of attachment. βNA = c1ccc2cc(N*)ccc2c1
Test system: E. coli AG100tet
Assay: EtBr efflux by real-time fluorometry
Settings: 80 µM
Procedure: Control tubes with only cells and cells with and without 0.4% glucose were included. The fluorescence was measured in a Rotor-Gene 3000 and the data was acquired every 30 s for 30 min at 37 °C. The efflux activity was quantified by comparing the fluorescence data obtained under conditions that promote efflux (presence of glucose and absence of efflux inhibitor) with the data from the control in which the bacteria are under conditions of no efflux (presence of an inhibitor and no energy source).

Question: How did the “Fluorescence raw data, Channel Cycling A.530/585hp” value (from here on “Fluorescence raw data”) (cycle 19, + glucose) turn out when `NC(N)=NCCC[C@H](NC(=O)[C@@H](N)Cc1ccccc1)C(=O)Nc1ccc2ccccc2c1` [PAβN] (H-Phe-Arg-βNA) was run?
Answer: 1.694

Question: And the “Fluorescence raw data” value (cycle 19, without glucose)?
Answer: 2.342

Question: What about the “Fluorescence raw data” value (cycle 20, + glucose) of the same compound?
Answer: 1.701

Question: And the “Fluorescence raw data” value (cycle 20, without glucose)?
Answer: 2.323

Question: And the “Fluorescence raw data” value (cycle 21, + glucose)?
Answer: 1.621

Question: What about the “Fluorescence raw data” value (cycle 21, without glucose) of the same compound?
Answer: 2.26

Question: What about the “Fluorescence raw data” value (cycle 22, + glucose) of the same compound?
Answer: 1.645

Question: And the “Fluorescence raw data” value (cycle 22, without glucose)?
Answer: 2.252

Question: And the “Fluorescence raw data” value (cycle 23, + glucose)?
Answer: 1.597

Question: What about the “Fluorescence raw data” value (cycle 23, without glucose) of the same compound?
Answer: 2.314

Question: And the “Fluorescence raw data” value (cycle 24, + glucose)?
Answer: 1.6798

Question: What about the “Fluorescence raw data” value (cycle 24, without glucose) of the same compound?
Answer: 2.2447

Question: What about the “Fluorescence raw data” value (cycle 25, + glucose) of the same compound?
Answer: 1.636

Question: And the “Fluorescence raw data” value (cycle 25, without glucose)?
Answer: 2.272

Question: What about the “Fluorescence raw data” value (cycle 26, + glucose) of the same compound?
Answer: 1.633

Question: And the “Fluorescence raw data” value (cycle 26, without glucose)?
Answer: 2.288

Question: What about the “Fluorescence raw data” value (cycle 27, + glucose) of the same compound?
Answer: 1.617

Question: And the “Fluorescence raw data” value (cycle 27, without glucose)?
Answer: 2.2961

Question: What about the “Fluorescence raw data” value (cycle 28, + glucose) of the same compound?
Answer: 1.668

Question: What about the “Fluorescence raw data” value (cycle 28, without glucose) of the same compound?
Answer: 2.2127

Question: What about the “Fluorescence raw data” value (cycle 29, + glucose) of the same compound?
Answer: 1.644

Question: What about the “Fluorescence raw data” value (cycle 29, without glucose) of the same compound?
Answer: 2.236

Question: And the “Fluorescence raw data” value (cycle 30, + glucose)?
Answer: 1.668

Question: What about the “Fluorescence raw data” value (cycle 30, without glucose) of the same compound?
Answer: 2.282

Question: And the “Fluorescence raw data” value (cycle 31, + glucose)?
Answer: 1.6751

Question: And the “Fluorescence raw data” value (cycle 31, without glucose)?
Answer: 2.164

Question: And the “Fluorescence raw data” value (cycle 32, + glucose)?
Answer: 1.6187

Question: What about the “Fluorescence raw data” value (cycle 32, without glucose) of the same compound?
Answer: 2.166

Question: And the “Fluorescence raw data” value (cycle 33, + glucose)?
Answer: 1.65

Question: What about the “Fluorescence raw data” value (cycle 33, without glucose) of the same compound?
Answer: 2.197

Question: What about the “Fluorescence raw data” value (cycle 34, + glucose) of the same compound?
Answer: 1.608

Question: What about the “Fluorescence raw data” value (cycle 34, without glucose) of the same compound?
Answer: 2.188

Question: What about the “Fluorescence raw data” value (cycle 35, + glucose) of the same compound?
Answer: 1.636

Question: And the “Fluorescence raw data” value (cycle 35, without glucose)?
Answer: 2.154

Question: What about the “Fluorescence raw data” value (cycle 36, + glucose) of the same compound?
Answer: 1.655

Question: And the “Fluorescence raw data” value (cycle 36, without glucose)?
Answer: 2.1525

Question: What about the “Fluorescence raw data” value (cycle 37, + glucose) of the same compound?
Answer: 1.639

Question: What about the “Fluorescence raw data” value (cycle 37, without glucose) of the same compound?
Answer: 2.17

Question: And the “Fluorescence raw data” value (cycle 38, + glucose)?
Answer: 1.617

Question: And the “Fluorescence raw data” value (cycle 38, without glucose)?
Answer: 2.15

Question: What about the “Fluorescence raw data” value (cycle 39, + glucose) of the same compound?
Answer: 1.593

Question: And the “Fluorescence raw data” value (cycle 39, without glucose)?
Answer: 2.185

Question: And the “Fluorescence raw data” value (cycle 40, + glucose)?
Answer: 1.564

Question: What about the “Fluorescence raw data” value (cycle 40, without glucose) of the same compound?
Answer: 2.132

Question: And the “Fluorescence raw data” value (cycle 41, + glucose)?
Answer: 1.567

Question: And the “Fluorescence raw data” value (cycle 41, without glucose)?
Answer: 2.08

Question: And the “Fluorescence raw data” value (cycle 42, + glucose)?
Answer: 1.587

Question: And the “Fluorescence raw data” value (cycle 42, without glucose)?
Answer: 2.131

Question: What about the “Fluorescence raw data” value (cycle 43, + glucose) of the same compound?
Answer: 1.59

Question: What about the “Fluorescence raw data” value (cycle 43, without glucose) of the same compound?
Answer: 2.079

Question: What about the “Fluorescence raw data” value (cycle 44, + glucose) of the same compound?
Answer: 1.59

Question: And the “Fluorescence raw data” value (cycle 44, without glucose)?
Answer: 2.093

Question: And the “Fluorescence raw data” value (cycle 45, without glucose)?
Answer: 2.121

Question: What about the “Fluorescence raw data” value (cycle 46, without glucose) of the same compound?
Answer: 2.065

Question: What about the “Fluorescence raw data” value (cycle 47, without glucose) of the same compound?
Answer: 2.081

Question: And the “Fluorescence raw data” value (cycle 48, without glucose)?
Answer: 2.1149

Question: And the “Fluorescence raw data” value (cycle 49, without glucose)?
Answer: 2.071

Question: What about the “Fluorescence raw data” value (cycle 50, without glucose) of the same compound?
Answer: 2.047

Question: And the “Fluorescence raw data” value (cycle 51, without glucose)?
Answer: 2.071

Question: And the “Fluorescence raw data” value (cycle 52, without glucose)?
Answer: 2.107

Question: What about the “Fluorescence raw data” value (cycle 53, without glucose) of the same compound?
Answer: 2.082

Question: And the “Fluorescence raw data” value (cycle 54, without glucose)?
Answer: 2.046

Question: What about the “Fluorescence raw data” value (cycle 55, without glucose) of the same compound?
Answer: 2.03

Question: And the “Fluorescence raw data” value (cycle 56, without glucose)?
Answer: 2.023

Question: And the “Fluorescence raw data” value (cycle 57, without glucose)?
Answer: 2.015

Question: What about the “Fluorescence raw data” value (cycle 58, without glucose) of the same compound?
Answer: 2.049

Question: What about the “Fluorescence raw data” value (cycle 59, without glucose) of the same compound?
Answer: 2.011

Question: What about the “Fluorescence raw data” value (cycle 60, without glucose) of the same compound?
Answer: 2.05

Question: And the “Fluorescence raw data” value (cycle 61, without glucose)?
Answer: 1.991

— publication PMC5433425 (PeerJ, 2017)
